In patent US9657312B2, “Replication competent pseudo-type retrovirus vector system” (Inje University Industry-Academic Cooperation Foundation, priority 2012, dated 2017):

Tested on: U-87 MG cells
Assay: MTT assay of cytotoxicity of vector-infected cells treated with GCV
Format: cell-based, human
Details: normal (non-infected) cells
Procedure: In order to measure a degree of cytotoxicity of the cells infected with the spRCR-TK vector when treated with GCV in vitro, MTT assay was carried out. First, a vector carrying a therapeutic gene, TK, instead of a GFP gene of the Env vector was prepared. Then, the 293T cells were transfected with the prepared vector and a Gag-pol vector, so as to manufacture the spRCR-TK vector. Then, the U-87 MG cells were infected with the virus of the spRCR-TK vector, and maintained for 14 days. Afterwards, the infected cells and non-infected cells were inoculated into a 96-well plate. […] The GCV treatment period was divided as the 1st, 2nd, 3rd, and 4th day, to perform MTT assay.

Nc1nc(O)c2ncn(COC(CO)CO)c2n1 [GCV, Ganciclovir]
GCV concentration from which normal cells show cytotoxicity: ≥ 70 µg/mL
